Measured values published in patent US20240398785A1, “SMALL MOLECULE DRUGS FOR THE INDUCTION OF TRAINED IMMUNITY” (THE UNIVERSITY OF CHICAGO, priority 2023, published 2024).

How the values were obtained:
BMDMs [1] = assay: A1155463 immunogenicity, BMDM supernatant after 24 hours; type: cell-based, mouse; details: no challenge
Procedure: FIG. 7: Testing immunogenicity of A115463 on BMDMs: BMDMs (100,000 cells per well) were incubated with PBS (red), different doses of A1155463 (blue 10 uM, green 1 uM or purple 0.1 uM) or different concentrations of DMSO, reflective of the A1155463 doses for 24 h.
Bcl-xL is an anti-apoptotic protein with some role in mediating inflammatory reactions.^32,33 Most documented inducers of trained immunity elicit an initial immune response upon administration. However, A1155463 has never been reported elicit inflammatory responses in vitro. To test if A1155463 elicited an enhanced innate response on its own in vitro, supernatant from BMDMs cultured with A1155463 for 24 hours was analyzed. […] The non-immunogenicity of A1155463 was validated using an NF-kb reporter cell line. […] Taken together, this evidence supports that A1155463 is a non-immunogenic trained immunity inducing molecule.

BMDMs [2] = assay: Annexin-V staining for apoptotic cells; type: cell-based, mouse; details: 100 nM, 24 hours
Procedure: FIGS. 9A-9E: Representative plots for Annexin V gating strategy for apoptotic cells: BMDMs were stimulated with nothing (unstained control, FIG. 9A), PBS (negative control, FIG. 9B), Camptothecin (positive control, FIG. 9C) or A1155463 (FIG. 9D); n=3, (except camptothecin n=1). Results from plots 9B-9D depicted in FIG. 9E.
Since Bcl-xL is a known anti-apoptotic protein, a study was performed to see if inhibition with 100 nM A1155463 induced apoptosis in BMDMs. To test this, Annexin-V staining was used to gate for apoptotic cells 24 hours following stimulation with either PBS or A1155463.

mice = assay: A1155463 in-vivo training, LPS challenge; set-up: species or system mouse
Procedure: FIGS. 6A-6H: in-vivo A1155463 trained immunity (TI) assays. FIG. 6A is a schematic showing the in-vivo training schedule. Mice were dosed intraperitoneally (i.p.) with training material (PBS or A1155463 at 15 milligrams per kilogram body weight (mg/kg)) daily for six days. […] FIG. 6B is a graph showing the interleukin-6 (IL-6) and tumor necrosis factor-alpha (TNF-α) levels (expressed as picograms per milliliter (pg/ml) 1 hour (h) following LPS challenge with either PBS (black) or A1155463 (pink); n=5. FIG. 6C is a graph showing the percentage (%) of small peritoneal macrophages (SPMs) from the peritoneal cavity of PBS (black) or A1155463 trained (pink) mice 2 h post LPS challenge on day 7. FIG. 6D is a graph showing the IL-6 levels (pg/ml) from bone-marrow cells isolated on day 7 challenged ex-vivo with LPS from either PBS (black) or A1155463 (pink) trained mice; n=3. FIG. 6E is a schematic showing the in-vivo training schedule for B16.F10 tumor challenge. FIG. 6F is a graph showing the tumor volumes (in cubic millimeters (mm3)) of mice trained with PBS (black) or A1155463 (pink) mice; n=8. FIG. 6G is a schematic of the in-vivo training schedule for B16.F10 tumor challenge with checkpoint therapy (CPT) administered on day 14 and 17. FIG. 6H is a graph showing tumor volumes (mm^3) of mice trained with PBS (black; n=4) or A1155463 (pink; n=5).
FIG. 10: Ruling out innate immune priming: Mice were trained with PBS or vehicle (black) or A1155463 (pink) according to schedule illustrated in FIG. 6A.
Since A1155463 induced training effects in-vitro, its ability to induce training in mice was studied. […] The vehicle control group was also dosed similarly to account for solvent effects. To rule out the impact of innate immune priming due to the high dosage, systemic cytokines were checked for 24 hours after the last dosing on day 6. […] […].
Apart from increased systemic cytokines, recruitment of monocyte-derived small peritoneal macrophages (SPMs) is another hallmark of enhanced training. […] Central effects of trained immunity occur at the bone-marrow progenitor favoring myelopoiesis.^39 To test if A1155463 induced training effects in bone-marrow cells, cells were isolated from the bone-marrow seven days following the training schedule described in FIG. 6A. Bone-marrow cells from PBS or A1155463 trained cells were challenged with 5 ng/mL of LPS and the supernatant was analyzed 24 hours later. […].

B16.F10 tumors = assay: B16.F10 tumor model after A1155463 training; type: in vivo, mouse
Procedure: FIGS. 6A-6H: in-vivo A1155463 trained immunity (TI) assays. FIG. 6A is a schematic showing the in-vivo training schedule. Mice were dosed intraperitoneally (i.p.) with training material (PBS or A1155463 at 15 milligrams per kilogram body weight (mg/kg)) daily for six days. Mice were challenged with 5 mg lipopolysaccharide (LPS) on day 7. FIG. 6B is a graph showing the interleukin-6 (IL-6) and tumor necrosis factor-alpha (TNF-α) levels (expressed as picograms per milliliter (pg/ml) 1 hour (h) following LPS challenge with either PBS (black) or A1155463 (pink); n=5. FIG. 6C is a graph showing the percentage (%) of small peritoneal macrophages (SPMs) from the peritoneal cavity of PBS (black) or A1155463 trained (pink) mice 2 h post LPS challenge on day 7. FIG. 6D is a graph showing the IL-6 levels (pg/ml) from bone-marrow cells isolated on day 7 challenged ex-vivo with LPS from either PBS (black) or A1155463 (pink) trained mice; n=3. FIG. 6E is a schematic showing the in-vivo training schedule for B16.F10 tumor challenge. FIG. 6F is a graph showing the tumor volumes (in cubic millimeters (mm3)) of mice trained with PBS (black) or A1155463 (pink) mice; n=8. FIG. 6G is a schematic of the in-vivo training schedule for B16.F10 tumor challenge with checkpoint therapy (CPT) administered on day 14 and 17. […]

[3] = 15 mg/kg i.p. daily for 6 days, LPS 5 μg per mouse, after 1 hour

CN(C)CC#Cc1ccc(OCCCc2sc(N3CCc4cccc(C(=O)Nc5nc6ccccc6s5)c4C3)nc2C(=O)O)c(F)c1 [A1155463, 2-(8-(benzo[d]thiazol-2-ylcarbamoyl)-3,4-dihydroisoquinolin-2(1H)-yl)-5-(3-(4-(3-(dimethyl-amino)prop-1-yn-1-yl)-2-fluorophenoxy)propyl)thiozole-4-carboxylic acid]
IL-6 levels vs PBS-treated BMDMs (BMDMs [1]): No significant difference | percentage of apoptotic cells (BMDMs [2]): No significant difference | systemic IL-6 or TNF-α without challenge (priming) (mice; 15 mg/kg i.p. daily for 6 days, 24 hours after the last dosing): No systemic IL-6 or TNF-α was observed | increase in IL-6 following LPS challenge (mice; [3]): 2.3 fold | increase in TNF-α following LPS challenge (mice; [3]): 1.97 fold | percentage of SPMs (mice; two hours post-LPS challenge): non-significant increase | tumor growth vs untrained (vehicle) control (B16.F10 tumors; 15 mg/kg daily for 6 days, s.c. B16.F10 24 hours after last dosing): significant decrease in tumor growth | tumor growth with checkpoint therapy (B16.F10 tumors; plus anti-PDL1 and anti-CTLA-4 on days 14 and 17): Significantly reduced tumor growth
